# Assay results: patent publication US20130102829A1, “METHOD FOR TREATING OSTEOSARCOMA BY BORON NEUTRON CAPTURE THERAPY USING BORIC ACID AS A BORON DRUG” (National Tsing Hua University, priority 2011, published 2013)
# Read-outs that look alike come from different tables or passages of the source.
# How the values were obtained:
# brain tumors = conditions: 1950s; cited from earlier work
# [1] = rat, in vivo
# Method: Before measuring boron concentration of a sample, it needs to undergo microwave digestion first. A sample was initially placed into a Teflon high-pressure digestion vessel, then added with 3 mL of concentrated nitric acid (14N, 65%) and 0.5 mL of hydrogen peroxide (30-35%), and the vessel was sealed before placing the vessel into a microwave digestion system (MLS 1200 Milestone, Italia) for sample decomposition. […] The sample subsequently turned into a clear solution after complete digestion. After diluting the sample with deionized water, an Inductively Coupled Plasma Atomic Emission Spectrometer (ICP-AES, OPTIMA 2000 DV, PerkinElmer Instruments) was used to measure the boron concentration of the sample. For the conditions of the analysis, the temperature of argon plasma was set at 6000-7000 K; the analytical wavelength was set at 249.773 nm, and the liquid uptake rate was set at approximately 2 mL/min; the operating voltage after the formation of plasma was set at 40 V.
# (§1) Male SD rats were the animals used in this osteosarcoma-bearing animal-model. Prior to the experiments, the rats were bred in cage for at least one week at temperature of 22° C. and humidity of 30-70%. An artificial lighting condition (12 h on/12 h off) was maintained in the room. The animal feeds and water were unlimited. The tumor cells used in the experiments were UMR-106 cell strain (Rat osteogenic sarcoma cell line, BCRC No: 60270). Firstly, obtained the UMR-106 tumor cells in exponential growth phase from a culture flask, then centrifuged the UMR-106 cells obtained by subculture method, followed by re-suspending the cells in a media without serum or antibiotics, and dividing the suspension into separate centrifuge microtubes. Placed the Matrigel Matrix (BD Bioscience), a syringe, and the centrifuge microtubes with the cell suspension on ice to be cooled for later use. Before implanting the tumor cells, the UMR-106 cell suspension was mixed with an equal amount of Matrigel first.
# A SD rat was firstly anesthetized by using 2.5% Isoflurane (Halocarbon Laboratories, River Edge, N.J.), followed by shaving and disinfecting a surgical area on the rat for implanting the tumor cells. […] After the implantation, the rats were released back into the cage, and their activities and body conditions were monitored continuously. […]
# Using the boric acid aqueous solution as a boron drug to do the animal experiments, drugs were administered to the osteosarcoma-bearing rats (six-week old, approximately 200-250 g in body weight) via tail vein injection, and the dose of the boric acid drugs was: 25 mg ^10B/kg BW. The rats' body weights needed to be measured and recorded before the experiments for preparing the boric acid aqueous solution. […]
# [2] = 60 mg of ^10B stable isotope per kilogram of human body weight; cited from earlier work
# [3] = in vivo and in vitro studies; binding to the cis-hydroxy groups; cited from earlier work
# UMR-106 osteosarcoma = test system: UMR-106 osteosarcoma
# Method: as §1
# A SD rat was firstly anesthetized by using 2.5% Isoflurane (Halocarbon Laboratories, River Edge, N.J.), followed by shaving and disinfecting a surgical area on the rat for implanting the tumor cells. A 250 μL micro-syringe was fitted with a 25 gauge needle before extracting 200 μL of a mixed solution containing the cells and Matrigel (10×10^6 cells/200 μL). Then the needle was used to penetrate a SD rat's distal femur, which is the femoral condyle; the syringe was rotated in order to penetrate the femur and the spongy bone, and ensured it had protruded out of the femur by touching with a finger. Subsequently, 100 μL of the tumor cell solution was slowly injected into the extra-skeletal muscular tissues, and 100 μL of the solution was injected into the epiphysis and the metaphysis of the femur (at 0.5 cm deep from skin surface) after slowly retracting the needle. After the implantation, the rats were released back into the cage, and their activities and body conditions were monitored continuously. The animals were immunosuppressed by daily administration of cyclosporin A (10 mg/kg, Sandimmun®, Novartis) for total 7 days from the 3rd to the 9th day after UMR-106 cells injection.
# (§2) The experimental animals were divided into three groups; a tumor control group (in which the rats received implantation of tumor cells but not BNCT treatment), a high-dose BNCT group, and a low-dose BNCT group.
# After the SD rats were implanted with tumor cells for 11 days, the BNCT treatment and subsequent evaluation of biological effects were commenced. Considering the pharmacokinetics and the changes in boron concentration distribution in the rats after the drug administration, BNCT irradiation was carried out at adequate times after administering boric acid. The rats were anesthetized by gas, then intravenously injected with a boric acid of 25 mg ^10B/kg BW. Fifteen minutes before the neutron irradiation, the rats were injected with Atropine and Zoletil to allow the rats to be anesthetized longer. Each of the rats was placed on a fixing frame with its tumor-bearing area close to the beam aperture of the Tsing Hua Open-pool Reactor (THOR), and then neutron irradiation was performed at a specific neutron flux and irradiation time to achieve a certain total neutron fluence. For the reactor power at 1.2 MW, the neutron fluxes at the central beam exit were 1.34×10^8, 1.07×10^9, and 7.66×10^7 n/cm^2/sec, respectively for thermal, epithermal, and fast neutrons. [Liu, Y. H., Tsai, P. E., Liu, H. M., Jiang, S. H., “Characterization of a BNCT beam using neutron activation and indirect neutron radiography,” Radiation Measurements, vol. 45, pp. 1167-1170, 2010.] After the irradiation, the actual irradiation time and reactor power were adjusted by using the on-line neutron monitoring system for THOR.
# [4] = oral administration of BA to rats or human; cited from earlier work
# [5] = rat, in vivo; remark: listed apart in the source
# Description: as §2
# After the SD rats were implanted with tumor cells for 11 days, the BNCT treatment and subsequent evaluation of biological effects were commenced. Considering the pharmacokinetics and the changes in boron concentration distribution in the rats after the drug administration, BNCT irradiation was carried out at adequate times after administering boric acid. The rats were anesthetized by gas, then intravenously injected with a boric acid of 25 mg ^10B/kg BW. Fifteen minutes before the neutron irradiation, the rats were injected with Atropine and Zoletil to allow the rats to be anesthetized longer. […]
# Boric acid (25 mg 10B/kg) were injected into the tumor-bearing rats via the tail vein before the irradiation. […] Consequently, the doses received in each of the organs were calculated according to the actual irradiation times and powers, along with simulations of dose rates in the rats' organs from the MCNP application. […]
# [6] = in vivo; cited from earlier work
# Glioblastoma multiforme = conditions: in vivo; cited from earlier work
molecule,measurement,setting,value
"O=BOB(O)OB(O)OB=O [Borax, sodium borate]",outcome of BNCT clinical trials,brain tumors,unsuccessful
OB(O)O [boric acid],boron concentration of extra-skeletal tumor tissues relative to blood,"[1]; male, Sprague-Dawley, 1 h",approximately 1.2 times
same,boron concentration of tumor-bearing distal femurs relative to blood,"[1]; male, Sprague-Dawley, 1 h",approximately 2.1 times
same,boron concentration of tumor-bearing proximal femurs relative to blood,"[1]; male, Sprague-Dawley, 1 h",approximately 2.6 times
same,boron concentrations in the soft tissues compared with blood,[1],similar
same,adverse effect of an injection dose of boric acid,[2],no permanent adverse effect
same,affinity with hydroxyapatite of bone,[3],strong affinity
same,histopathological finding of extra-skeletal tumor region,"UMR-106 osteosarcoma; 80th day after BNCT, hematoxylin and eosin stain",no-viable tumor cells were found
same,reduction of the sizes of the tumors,UMR-106 osteosarcoma; 80th day after the irradiation,~90%
same,bone healing on radiographs,"UMR-106 osteosarcoma; high dose day 5 to 16, low dose day 5 to 23 after BNCT",the bone appeared to be healing gradually
same,relative tumor area,"UMR-106 osteosarcoma; high-dose BNCT group (11.0 Gy), 5th day after BNCT, area divided by area on day of BNCT",1.1
same,relative tumor area,"UMR-106 osteosarcoma; high-dose BNCT group, 10th day after BNCT",0.7
same,relative tumor area,"UMR-106 osteosarcoma; high-dose BNCT group, 30th day after BNCT",0.2
same,relative tumor area,"UMR-106 osteosarcoma; high-dose BNCT group, 60th day after BNCT",0.2
same,relative tumor area,"UMR-106 osteosarcoma; high-dose BNCT group, 80th day after BNCT",0.1
same,relative tumor area,"UMR-106 osteosarcoma; low-dose BNCT group (5.8 Gy), 5th day after BNCT",1.3
same,relative tumor area,"UMR-106 osteosarcoma; low-dose BNCT group, 10th day after BNCT",1.1
same,relative tumor area,"UMR-106 osteosarcoma; low-dose BNCT group, 30th day after BNCT",0.3
same,relative tumor area,"UMR-106 osteosarcoma; low-dose BNCT group, 60th day after BNCT",0.2
same,relative tumor area,"UMR-106 osteosarcoma; low-dose BNCT group, 80th day after BNCT",0.2
same,factor by which boron concentrations in bones exceeded those in blood,[4],4
same,"gastro-intestinal reactions, weight loss and other discomfort after the irradiation",[5],temporary side-effects
same,ratio of boron concentrations in blood and soft tissue,[6],one
borocaptate sodium [BSH],ratio of boron concentrations between tumors and normal tissues,Glioblastoma multiforme,does not result in higher ratio
